Measurements reported in the supplement of paper PMC12076712.

Experiments:
Test in all cases: pIC50, kinobeads binding competition
Details in all cases: cell material: Jurkat lysate
MAPKAPK3 = MAPKAPK3 (UniProt Q16644)
UniProt Q8N4C8 = molecular target: UniProt Q8N4C8
ZAP70 = molecular target: T1, ZAP70 (UniProt P43403)
T1 sequence (whole entry): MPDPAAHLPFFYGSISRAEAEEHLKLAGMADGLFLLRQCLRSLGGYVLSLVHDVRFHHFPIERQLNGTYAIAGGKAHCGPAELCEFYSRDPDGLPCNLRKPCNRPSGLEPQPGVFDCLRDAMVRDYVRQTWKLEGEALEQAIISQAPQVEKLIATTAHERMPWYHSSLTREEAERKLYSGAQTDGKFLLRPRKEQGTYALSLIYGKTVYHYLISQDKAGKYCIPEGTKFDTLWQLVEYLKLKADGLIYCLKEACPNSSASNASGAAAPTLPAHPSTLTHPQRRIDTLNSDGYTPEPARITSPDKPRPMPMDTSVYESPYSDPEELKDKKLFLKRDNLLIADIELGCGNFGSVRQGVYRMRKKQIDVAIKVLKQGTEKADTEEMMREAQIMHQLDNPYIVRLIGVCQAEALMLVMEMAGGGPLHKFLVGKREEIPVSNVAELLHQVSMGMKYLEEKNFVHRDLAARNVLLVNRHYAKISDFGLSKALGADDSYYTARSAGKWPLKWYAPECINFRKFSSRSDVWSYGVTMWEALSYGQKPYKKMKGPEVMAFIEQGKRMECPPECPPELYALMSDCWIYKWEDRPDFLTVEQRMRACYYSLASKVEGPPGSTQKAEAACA

TTK = molecular target: T2, TTK (UniProt P33981)
T2 sequence (whole entry): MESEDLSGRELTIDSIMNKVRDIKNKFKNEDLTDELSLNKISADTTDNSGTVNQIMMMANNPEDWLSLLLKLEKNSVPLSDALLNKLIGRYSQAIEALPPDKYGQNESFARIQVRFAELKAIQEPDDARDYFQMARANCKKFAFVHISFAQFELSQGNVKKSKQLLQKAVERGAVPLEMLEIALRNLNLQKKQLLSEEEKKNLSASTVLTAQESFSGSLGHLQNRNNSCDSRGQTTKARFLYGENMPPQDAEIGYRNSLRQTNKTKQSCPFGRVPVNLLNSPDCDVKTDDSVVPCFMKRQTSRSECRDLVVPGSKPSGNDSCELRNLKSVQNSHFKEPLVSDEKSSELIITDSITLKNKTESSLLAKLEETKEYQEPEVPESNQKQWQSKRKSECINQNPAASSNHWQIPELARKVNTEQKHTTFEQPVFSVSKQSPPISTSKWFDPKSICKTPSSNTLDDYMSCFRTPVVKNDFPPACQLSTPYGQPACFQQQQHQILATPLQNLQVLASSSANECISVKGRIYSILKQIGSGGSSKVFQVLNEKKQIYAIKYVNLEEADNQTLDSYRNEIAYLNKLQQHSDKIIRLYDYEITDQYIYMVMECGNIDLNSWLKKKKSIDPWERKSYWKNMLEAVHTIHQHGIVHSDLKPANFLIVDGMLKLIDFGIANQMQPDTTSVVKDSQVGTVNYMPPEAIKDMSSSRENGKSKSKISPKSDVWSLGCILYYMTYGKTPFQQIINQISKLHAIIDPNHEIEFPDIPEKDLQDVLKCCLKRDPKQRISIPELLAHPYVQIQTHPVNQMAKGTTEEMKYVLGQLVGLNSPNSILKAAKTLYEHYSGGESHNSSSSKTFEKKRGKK

CLK1 = CLK1 (UniProt P49759)
LATS1 = molecular target: T3, LATS1 (UniProt O95835)
T3 sequence (whole entry): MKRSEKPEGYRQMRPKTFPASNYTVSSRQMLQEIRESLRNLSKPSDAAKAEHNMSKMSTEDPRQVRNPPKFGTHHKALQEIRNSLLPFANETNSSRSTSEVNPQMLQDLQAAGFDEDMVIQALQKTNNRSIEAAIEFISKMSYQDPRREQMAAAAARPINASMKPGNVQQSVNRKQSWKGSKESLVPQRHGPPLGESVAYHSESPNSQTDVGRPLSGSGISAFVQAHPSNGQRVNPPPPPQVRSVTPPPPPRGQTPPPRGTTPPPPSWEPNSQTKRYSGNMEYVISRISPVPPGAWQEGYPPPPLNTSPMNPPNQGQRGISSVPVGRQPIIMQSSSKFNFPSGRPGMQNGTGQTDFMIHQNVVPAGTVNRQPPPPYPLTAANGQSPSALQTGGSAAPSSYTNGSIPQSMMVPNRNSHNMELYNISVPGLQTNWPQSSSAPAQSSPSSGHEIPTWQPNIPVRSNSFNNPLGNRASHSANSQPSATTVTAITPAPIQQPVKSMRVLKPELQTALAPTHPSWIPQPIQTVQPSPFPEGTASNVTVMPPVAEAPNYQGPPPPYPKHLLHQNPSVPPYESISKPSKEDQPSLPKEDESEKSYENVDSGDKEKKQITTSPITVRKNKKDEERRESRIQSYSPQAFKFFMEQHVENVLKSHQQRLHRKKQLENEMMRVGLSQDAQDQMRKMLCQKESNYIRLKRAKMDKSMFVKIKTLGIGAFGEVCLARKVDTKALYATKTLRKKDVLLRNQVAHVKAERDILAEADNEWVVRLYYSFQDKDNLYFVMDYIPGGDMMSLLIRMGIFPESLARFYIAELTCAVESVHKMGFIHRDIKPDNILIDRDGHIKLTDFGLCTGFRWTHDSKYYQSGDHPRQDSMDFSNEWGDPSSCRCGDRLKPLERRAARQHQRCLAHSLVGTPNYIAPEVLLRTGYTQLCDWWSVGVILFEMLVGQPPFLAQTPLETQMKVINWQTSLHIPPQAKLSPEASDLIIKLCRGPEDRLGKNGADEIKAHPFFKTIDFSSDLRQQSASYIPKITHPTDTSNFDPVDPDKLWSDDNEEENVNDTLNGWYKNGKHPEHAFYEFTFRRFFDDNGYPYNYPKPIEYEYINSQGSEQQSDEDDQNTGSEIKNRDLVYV

Chain of CLK1 (P49759 whole entry, looked up): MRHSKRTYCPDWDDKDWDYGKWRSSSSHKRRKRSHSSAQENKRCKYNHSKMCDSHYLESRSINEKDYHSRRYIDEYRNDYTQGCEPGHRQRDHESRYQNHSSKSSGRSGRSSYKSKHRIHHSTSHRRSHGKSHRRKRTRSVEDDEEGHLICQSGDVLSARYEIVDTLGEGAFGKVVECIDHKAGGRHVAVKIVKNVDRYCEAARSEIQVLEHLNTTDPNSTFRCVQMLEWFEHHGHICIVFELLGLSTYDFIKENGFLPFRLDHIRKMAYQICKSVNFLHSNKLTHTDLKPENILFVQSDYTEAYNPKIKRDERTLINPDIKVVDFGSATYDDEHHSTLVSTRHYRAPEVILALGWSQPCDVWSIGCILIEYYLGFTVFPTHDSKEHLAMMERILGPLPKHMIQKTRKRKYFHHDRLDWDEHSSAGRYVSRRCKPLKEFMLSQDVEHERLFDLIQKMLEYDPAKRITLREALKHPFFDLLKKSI
Chain of UniProt Q8N4C8 (Q8N4C8 whole entry, looked up): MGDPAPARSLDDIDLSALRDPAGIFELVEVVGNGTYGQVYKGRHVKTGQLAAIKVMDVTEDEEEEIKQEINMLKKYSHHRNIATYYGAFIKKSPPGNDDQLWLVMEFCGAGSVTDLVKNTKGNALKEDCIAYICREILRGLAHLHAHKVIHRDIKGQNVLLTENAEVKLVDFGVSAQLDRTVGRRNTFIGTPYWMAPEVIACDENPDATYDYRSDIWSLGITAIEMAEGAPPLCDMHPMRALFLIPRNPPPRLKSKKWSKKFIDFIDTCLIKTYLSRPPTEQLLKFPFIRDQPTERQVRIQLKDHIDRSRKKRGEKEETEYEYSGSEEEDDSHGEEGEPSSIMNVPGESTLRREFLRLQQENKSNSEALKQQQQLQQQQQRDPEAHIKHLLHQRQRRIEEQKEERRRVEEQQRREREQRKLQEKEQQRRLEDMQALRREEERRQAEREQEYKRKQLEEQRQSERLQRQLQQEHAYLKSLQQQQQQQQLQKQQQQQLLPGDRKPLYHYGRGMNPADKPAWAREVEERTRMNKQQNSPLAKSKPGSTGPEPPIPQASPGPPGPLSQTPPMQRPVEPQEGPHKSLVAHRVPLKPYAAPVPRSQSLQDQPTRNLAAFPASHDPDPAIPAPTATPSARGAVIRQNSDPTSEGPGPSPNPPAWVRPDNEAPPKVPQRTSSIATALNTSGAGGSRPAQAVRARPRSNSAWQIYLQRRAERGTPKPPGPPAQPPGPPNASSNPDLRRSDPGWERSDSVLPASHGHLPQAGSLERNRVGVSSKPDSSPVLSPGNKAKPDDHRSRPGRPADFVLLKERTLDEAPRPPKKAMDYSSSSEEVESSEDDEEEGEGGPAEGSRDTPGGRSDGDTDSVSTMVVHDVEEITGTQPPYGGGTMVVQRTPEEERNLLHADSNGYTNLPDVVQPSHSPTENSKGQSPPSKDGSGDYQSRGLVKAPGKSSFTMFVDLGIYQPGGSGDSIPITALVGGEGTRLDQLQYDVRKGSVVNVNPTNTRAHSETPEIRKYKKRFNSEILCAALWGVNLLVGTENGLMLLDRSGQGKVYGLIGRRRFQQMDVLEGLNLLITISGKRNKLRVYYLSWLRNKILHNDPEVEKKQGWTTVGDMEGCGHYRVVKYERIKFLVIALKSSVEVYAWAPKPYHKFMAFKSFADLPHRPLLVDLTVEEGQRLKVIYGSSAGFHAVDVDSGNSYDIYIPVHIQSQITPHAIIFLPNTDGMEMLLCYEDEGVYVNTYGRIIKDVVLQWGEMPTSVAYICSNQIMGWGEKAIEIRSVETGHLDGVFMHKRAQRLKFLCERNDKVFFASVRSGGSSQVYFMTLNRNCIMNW
Chain of MAPKAPK3 (Q16644 whole entry, looked up): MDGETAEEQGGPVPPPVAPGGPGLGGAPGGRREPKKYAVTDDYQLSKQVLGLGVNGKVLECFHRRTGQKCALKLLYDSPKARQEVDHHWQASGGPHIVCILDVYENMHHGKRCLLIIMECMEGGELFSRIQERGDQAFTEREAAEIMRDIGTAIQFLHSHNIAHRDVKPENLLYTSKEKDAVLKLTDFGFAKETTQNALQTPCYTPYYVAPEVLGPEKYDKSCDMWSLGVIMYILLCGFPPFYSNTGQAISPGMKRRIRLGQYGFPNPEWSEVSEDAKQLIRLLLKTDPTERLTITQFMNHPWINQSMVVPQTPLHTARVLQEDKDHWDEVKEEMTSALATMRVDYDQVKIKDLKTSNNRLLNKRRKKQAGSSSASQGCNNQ

`CCc1cnn2c(NCc3ccc[n+]([O-])c3)cc(N3CCCC[C@H]3CCO)nc12` [dinaciclib] showed a pIC50 (MAPKAPK3) of 6.8, a pIC50 (UniProt Q8N4C8) of under 4.52 and a pIC50 (ZAP70) of under 4.52. The pIC50 (TTK) was under 4.52, the pIC50 (CLK1) was 5.13 and the pIC50 (LATS1) was under 4.52.
